From patent USRE50724E1, “4-membered ring carboxamides used as nematicides” (SYNGENTA CROP PROTECTION AG, priority 2013, dated 2026)

Assays:
Meloidogyne spp. = Meloidogyne spp. (root-knot nematode), nematicide, contact activity, preventive: cucumber seed in filter paper pouch; type: in vivo; conditions: 288 h, cucumber cv. Toshka seed in pouch, 3000 eggs, twelve days, read-out: reduction of galling compared to the untreated control
Description: Meloidogyne spp. (Root-Knot Nematode) Nematicide, Contact Activity, Preventive. Filter papers (9 cm×4.5 cm) with a small pocket were placed into plastic pouches (12 cm×6 cm). One cucumber cv. Toshka seed was placed in the centre of the filter paper pocket of all the pouches needed for a test. The cucumber seeds in the pouches were treated with test solutions at 200 ppm by pipetting the solution directly over the cucumber seed in the filter paper pocket in the pouch. Prior to application, the compound solution was prepared at twice the concentration required and the egg suspension is prepared with FORL nutrient solution with 3000 eggs/0.5 ml. After applying all the treatments, 3000 eggs (in 0.5 ml of FORL nutrient solution) were pipetted into the pouches. The pouches were incubated in a moist chamber for twelve days and watered regularly to maintain good filter paper moisture essential for the growing cucumber root system. After this period, the filter paper containing the germinated cucumber seedling was removed from the plastic pouch to assess the number of galls caused by Meloidogyne spp. per root system. Phytotoxicity was measured as a reduction of growth of the emerged cucumber seedling in comparison to the control.

Heterodera schachtii = Heterodera schachtii (sugar beet cyst nematode), nematicide, contact activity: juvenile paralysis in 16-well assay plates; type: in vivo; conditions: 200 ppm, approx. 500 juveniles per well, 24 hours incubation at 25° C. in darkness, read-out: nematode immobilization compared to the untreated control
Description: Heterodera schachtii (Sugar Beet Cyst Nematode), Nematicide, Contact Activity
The tested application rate of each compound was 200 ppm. All solutions were brought to a concentration of 400 ppm, respectively, as they were subsequently diluted by adding the equivalent amount of water containing juvenile nematodes. After preparation of the suspensions, 1 ml of each suspension and concentration was transferred to 16-well assay plates with a total of three replicates per treatment. Approximately 500 juveniles of Heterodera schachtii were added in 1 ml of water to each well. Nematodes in water served as controls. The plates were placed in a dark box and stored at room temperature. Nematode paralysis was determined after 24 hours incubation at 25° C. in darkness.

For Cc1ncccc1C(=O)N[C@H]1CC[C@H]1c1ccc(Cl)cc1Cl [Compound 61.7, N-[(1S,2S)-2-(2,4-dichlorophenyl)cyclobutyl]-2-methylpyridine-3-carboxamide], the pest or weed control at 200 ppm (Meloidogyne spp.) was > 80% and the pest or weed control at 200 ppm (Heterodera schachtii) was > 75%.
For O=C(N[C@H]1CC[C@H]1c1ccc(Cl)cc1Cl)c1ccccc1Br [Compound 61.8, 2-bromo-N-[(1S,2S)-2-(2,4-dichlorophenyl)cyclobutyl]benzamide], the pest or weed control at 200 ppm (Meloidogyne spp.) was > 80% and the pest or weed control at 200 ppm (Heterodera schachtii) was > 75%.
In the case of O=C(N[C@H]1CC[C@H]1c1ccc(Cl)cc1)c1c(F)cccc1C(F)(F)F [Compound 61.41, N-[(1S,2S)-2-(4-chlorophenyl)cyclobutyl]-2-fluoro-6-(trifluoromethyl)benzamide], the pest or weed control at 200 ppm (Meloidogyne spp.) is reported as > 80% and the pest or weed control at 200 ppm (Heterodera schachtii) is reported as > 75%.
For O=C(N[C@H]1CC[C@H]1c1ccc(Cl)cc1Cl)c1ncccc1Br [Compound 61.60, 3-bromo-N-[(1S,2S)-2-(2,4-dichlorophenyl)cyclobutyl]pyridine-2-carboxamide], the pest or weed control at 200 ppm (Meloidogyne spp.) was > 80% and the pest or weed control at 200 ppm (Heterodera schachtii) was > 75%.
With Cc1occc1C(=O)N[C@H]1CC[C@H]1c1ccc(Cl)cc1Cl [Compound 61.64, N-[(1S,2S)-2-(2,4-dichlorophenyl)cyclobutyl]-2-methylfuran-3-carboxamide] the pest or weed control at 200 ppm (Meloidogyne spp.) was > 80% and the pest or weed control at 200 ppm (Heterodera schachtii) was > 75%.
O=C(N[C@H]1CC[C@H]1c1ccc(Cl)cc1Cl)c1c(F)cccc1Cl [Compound 61.66, 2-chloro-N-[(1S,2S)-2-(2,4-dichlorophenyl)cyclobutyl]-6-fluorobenzamide] was tested, and the pest or weed control at 200 ppm (Meloidogyne spp.) was > 80% and the pest or weed control at 200 ppm (Heterodera schachtii) was > 75%.
In the case of COc1cccc(F)c1C(=O)N[C@H]1CC[C@H]1c1ccc(Cl)cc1Cl [Compound 61.68, N-[(1S,2S)-2-(2,4-dichlorophenyl)cyclobutyl]-2-fluoro-6-methoxybenzamide], the pest or weed control at 200 ppm (Meloidogyne spp.) is reported as > 80% and the pest or weed control at 200 ppm (Heterodera schachtii) is reported as > 75%.
With Cc1cccc(F)c1C(=O)N[C@H]1CC[C@H]1c1ccc(Cl)cc1Cl [Compound 61.69, N-[(1S,2S)-2-(2,4-dichlorophenyl)cyclobutyl]-2-fluoro-6-methylbenzamide] the pest or weed control at 200 ppm (Meloidogyne spp.) was > 80% and the pest or weed control at 200 ppm (Heterodera schachtii) was > 75%.
For Cn1cccc1C(=O)N[C@H]1CC[C@H]1c1ccc(Cl)cc1Cl [Compound 61.76, N-[(1S,2S)-2-(2,4-dichlorophenyl)cyclobutyl]-1-methylpyrrole-2-carboxamide], the pest or weed control at 200 ppm (Meloidogyne spp.) was > 80% and the pest or weed control at 200 ppm (Heterodera schachtii) was > 75%.
Cn1cc(C(=O)N[C@H]2CC[C@H]2c2ccc(Cl)cc2Cl)c(C(F)F)n1 [Compound 61.77, N-[(1S,2S)-2-(2,4-dichlorophenyl)cyclobutyl]-3-(difluoromethyl)-1-methylpyrazole-4-carboxamide] was tested, and the pest or weed control at 200 ppm (Meloidogyne spp.) was > 80% and the pest or weed control at 200 ppm (Heterodera schachtii) was > 75%.
With O=C(N[C@H]1CC[C@H]1c1ccc(Cl)cc1Cl)c1ccsc1Cl [Compound 61.95, 2-chloro-N-[(1S,2S)-2-(2,4-dichlorophenyl)cyclobutyl]thiophene-3-carboxamide] the pest or weed control at 200 ppm (Meloidogyne spp.) was > 80% and the pest or weed control at 200 ppm (Heterodera schachtii) was > 75%.
For O=C(N[C@H]1CC[C@H]1c1ccc(Cl)cc1Cl)c1ccoc1Br [Compound 61.173, 2-bromo-N-[(1S,2S)-2-(2,4-dichlorophenyl)cyclobutyl]furan-3-carboxamide], the pest or weed control at 200 ppm (Heterodera schachtii) was > 75%.
In the case of O=C(N[C@H]1CC[C@H]1c1ccc(Cl)cc1Cl)c1ccoc1C(F)(F)F [Compound 61.174, N-[(1S,2S)-2-(2,4-dichlorophenyl)cyclobutyl]-2-(trifluoromethyl)furan-3-carboxamide], the pest or weed control at 200 ppm (Heterodera schachtii) is reported as > 75%.
